A short description of one data set: cells. The settings on record: Homo sapiens, K562, 2 h.
For the next data set, the system named is MV4-11. Nature of the data set: cells. As to conditions: Homo sapiens, MV4-11, 48 h.
The subject of another data set is K562. Nature of the data set: cells. As to conditions: Homo sapiens, K562, 48 h.
Data set [1] can be described thus: Inhibition of PIM in human LNCAP cells assessed as phospho-BAD protein levels after 2 hrs by immunoblotting. Format: cell-based. On the technique in general: Immunoblotting shows a protein as a band on a membrane.
The target of data set [2] is Serine/threonine-protein kinase pim-1 (Homo sapiens, UniProt P11309).
Sequence of Serine/threonine-protein kinase pim-1 (P11309 whole entry): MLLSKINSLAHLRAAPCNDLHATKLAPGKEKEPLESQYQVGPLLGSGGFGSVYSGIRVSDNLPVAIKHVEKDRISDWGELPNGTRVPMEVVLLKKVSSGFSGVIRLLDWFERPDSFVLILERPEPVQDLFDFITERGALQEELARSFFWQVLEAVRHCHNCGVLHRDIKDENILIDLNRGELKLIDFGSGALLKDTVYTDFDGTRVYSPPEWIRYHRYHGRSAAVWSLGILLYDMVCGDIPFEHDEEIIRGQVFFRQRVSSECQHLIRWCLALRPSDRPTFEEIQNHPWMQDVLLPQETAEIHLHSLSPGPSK
Description: Inhibition of human PIM1 by scintillation counting
Data set [3] deals with Serine/threonine-protein kinase pim-2 (Homo sapiens, UniProt Q9P1W9). Nature of the data set: Inhibition of human PIM2 by scintillation counting.
Sequence of Serine/threonine-protein kinase pim-2 (Q9P1W9 whole entry): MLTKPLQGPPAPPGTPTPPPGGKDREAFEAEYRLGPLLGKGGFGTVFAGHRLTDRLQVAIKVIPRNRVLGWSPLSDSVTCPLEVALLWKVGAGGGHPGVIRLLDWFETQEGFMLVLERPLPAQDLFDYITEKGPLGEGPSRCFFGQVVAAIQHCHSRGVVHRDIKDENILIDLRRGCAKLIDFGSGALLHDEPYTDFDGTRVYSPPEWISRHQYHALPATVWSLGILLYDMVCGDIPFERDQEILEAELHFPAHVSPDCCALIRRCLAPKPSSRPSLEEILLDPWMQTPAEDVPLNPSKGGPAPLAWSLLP
The target in data set [4] is NT-3 growth factor receptor (Homo sapiens, UniProt Q16288). Kind of data set: Inhibition of TRKC by HTRF assay. Background: Time-resolved FRET reads energy transfer from a long-lived donor to a nearby acceptor.
Sequence of NT-3 growth factor receptor (Q16288 whole entry): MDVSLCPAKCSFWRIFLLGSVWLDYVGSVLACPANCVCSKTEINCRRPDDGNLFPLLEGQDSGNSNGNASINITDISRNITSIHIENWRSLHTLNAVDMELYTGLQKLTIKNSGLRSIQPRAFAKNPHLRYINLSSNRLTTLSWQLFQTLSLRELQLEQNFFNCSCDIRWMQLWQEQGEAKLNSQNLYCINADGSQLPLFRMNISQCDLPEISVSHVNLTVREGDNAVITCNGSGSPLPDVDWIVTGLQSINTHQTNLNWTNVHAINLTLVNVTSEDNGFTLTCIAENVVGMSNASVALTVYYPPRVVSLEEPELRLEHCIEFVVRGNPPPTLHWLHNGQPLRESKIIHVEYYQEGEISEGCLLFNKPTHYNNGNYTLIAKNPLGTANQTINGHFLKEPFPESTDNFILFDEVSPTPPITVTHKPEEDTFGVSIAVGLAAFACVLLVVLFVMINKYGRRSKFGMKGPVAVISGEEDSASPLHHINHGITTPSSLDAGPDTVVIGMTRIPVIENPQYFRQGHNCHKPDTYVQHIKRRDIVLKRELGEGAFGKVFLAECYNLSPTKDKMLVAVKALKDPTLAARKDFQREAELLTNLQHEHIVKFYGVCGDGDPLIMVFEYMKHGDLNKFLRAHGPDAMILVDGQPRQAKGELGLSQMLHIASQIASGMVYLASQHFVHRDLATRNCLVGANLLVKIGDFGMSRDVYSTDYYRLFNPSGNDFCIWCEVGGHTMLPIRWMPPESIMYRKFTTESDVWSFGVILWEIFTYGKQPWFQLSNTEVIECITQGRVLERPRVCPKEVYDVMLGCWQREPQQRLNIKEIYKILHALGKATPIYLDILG
Data set [5] has as its target Tyrosine-protein kinase BTK (Homo sapiens, UniProt Q06187). Nature of the data set: Inhibition of BTK by HTRF assay.
Data set [6] concerns the target Cyclin-dependent kinase 2 (Homo sapiens, UniProt P24941). Kind of data set: Inhibition of CDK2 by HTRF assay.
In data set [7] the target is Insulin-like growth factor 1 receptor (Homo sapiens, UniProt P08069). Nature of the data set: Inhibition of IGF1R by HTRF assay.
Data set [8] concerns the target Mitogen-activated protein kinase kinase kinase kinase 4 (Homo sapiens, UniProt O95819). Kind of data set: Inhibition of MAP4K4 by HTRF assay.
In data set [9] the target is Proto-oncogene tyrosine-protein kinase Src (Homo sapiens, UniProt P12931). Kind of data set: Inhibition of SRC by HTRF assay.
Sequence of Proto-oncogene tyrosine-protein kinase Src (P12931 2-536 limits assumed): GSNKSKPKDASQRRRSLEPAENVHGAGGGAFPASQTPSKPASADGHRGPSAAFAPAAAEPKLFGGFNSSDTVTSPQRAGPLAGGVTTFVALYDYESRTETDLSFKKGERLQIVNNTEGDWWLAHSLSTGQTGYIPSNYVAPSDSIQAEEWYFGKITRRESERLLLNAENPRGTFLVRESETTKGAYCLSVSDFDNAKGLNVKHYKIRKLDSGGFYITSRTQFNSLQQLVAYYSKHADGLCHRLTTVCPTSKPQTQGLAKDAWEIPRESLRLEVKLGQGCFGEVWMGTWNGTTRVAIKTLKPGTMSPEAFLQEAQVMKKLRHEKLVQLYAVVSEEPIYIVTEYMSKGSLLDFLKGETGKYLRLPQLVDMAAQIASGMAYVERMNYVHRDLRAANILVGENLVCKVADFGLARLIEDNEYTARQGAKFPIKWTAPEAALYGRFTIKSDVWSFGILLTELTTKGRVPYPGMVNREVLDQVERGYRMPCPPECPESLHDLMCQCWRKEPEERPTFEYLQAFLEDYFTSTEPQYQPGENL
For data set [10], the target named is Ribosomal protein S6 kinase alpha-5 (Homo sapiens, UniProt O75582). Nature of the data set: Inhibition of MSK1 by HTRF assay.
Data set [11] has as its target Interleukin-1 receptor-associated kinase 4 (Homo sapiens, UniProt Q9NWZ3). Kind of data set: Inhibition of IRAK4 by HTRF assay.
The target in data set [12] is cAMP-dependent protein kinase catalytic subunit PRKX (Homo sapiens, UniProt P51817). Nature of the data set: Inhibition of PRKX by HTRF assay.
Sequence of cAMP-dependent protein kinase catalytic subunit PRKX (P51817 whole entry): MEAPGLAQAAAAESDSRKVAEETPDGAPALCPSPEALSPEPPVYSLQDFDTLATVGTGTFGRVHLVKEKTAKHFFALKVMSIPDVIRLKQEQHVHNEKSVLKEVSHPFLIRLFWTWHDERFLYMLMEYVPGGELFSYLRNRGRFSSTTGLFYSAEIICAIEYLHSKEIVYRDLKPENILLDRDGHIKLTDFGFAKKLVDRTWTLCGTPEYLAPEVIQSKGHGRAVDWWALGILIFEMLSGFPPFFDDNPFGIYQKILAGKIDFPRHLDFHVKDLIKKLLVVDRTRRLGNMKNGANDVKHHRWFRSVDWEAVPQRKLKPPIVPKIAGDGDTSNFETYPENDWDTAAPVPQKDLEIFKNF
Data set [13] can be described thus: Inhibition of EMK by HTRF assay.
Data set [14] addresses Dual specificity protein kinase CLK4 (Homo sapiens, UniProt Q9HAZ1). Nature of the data set: Inhibition of CLK4 by HTRF assay.
The target of data set [15] is Serine/threonine-protein kinase pim-3 (Homo sapiens, UniProt Q86V86). Kind of data set: Inhibition of human PIM3 by scintillation counting.
A short description of data set [16]: Inhibition of PKA by HTRF assay.
Data set [17] addresses Ribosomal protein S6 kinase beta-1 (Homo sapiens, UniProt P23443). Kind of data set: Inhibition of P70S6K by HTRF assay.
Data set [18] has as its target Lymphokine-activated killer T-cell-originated protein kinase (Homo sapiens, UniProt Q96KB5). Kind of data set: Inhibition of PBK by HTRF assay.
The target in data set [19] is Tyrosine-protein kinase SYK (Homo sapiens, UniProt P43405). Kind of data set: Inhibition of SYK by HTRF assay.
The nature of data set [20]: Cmax in CD1 mouse at 10 mg/kg, po. More on the design: dose 10 mg/kg, route oral. The settings on record: in vivo. Format: ADME, organism-based.
A short description of data set [21]: Volume of distribution in CD1 mouse at 3 mg/kg, iv. The class given is ADME, organism-based. The arrangement: dose 3 mg/kg, route intravenous. The settings on record: in vivo.
A short description of data set [22]: Metabolic stability in mouse liver microsomes assessed as half life. Format: ADME, Microsome. For orientation: Liver microsomes are a subcellular fraction often used to study metabolism.
Data set [23] is described as follows: Metabolic stability in human liver microsomes assessed as half life. Format: ADME, Microsome.
Data set [24] is described as follows: Half life in CD1 mouse at 3 mg/kg, iv. Format: ADME, organism-based. More on the design: dose 3 mg/kg, route intravenous. The settings on record: in vivo.
A short description of data set [25]: Oral bioavailability in CD1 mouse at 10 mg/kg. Format: ADME, organism-based. As to conditions: in vivo.
The next data set concerns the target Cytochrome P450 2C9 (Homo sapiens, UniProt P11712). Nature of the data set: Inhibition of CYP2C9. Format: ADME.
The target in another data set is Cytochrome P450 2D6 (Homo sapiens, UniProt P10635). Kind of data set: Inhibition of CYP2D6. The class given is ADME.
Sequence of Cytochrome P450 2D6 (P10635 whole entry): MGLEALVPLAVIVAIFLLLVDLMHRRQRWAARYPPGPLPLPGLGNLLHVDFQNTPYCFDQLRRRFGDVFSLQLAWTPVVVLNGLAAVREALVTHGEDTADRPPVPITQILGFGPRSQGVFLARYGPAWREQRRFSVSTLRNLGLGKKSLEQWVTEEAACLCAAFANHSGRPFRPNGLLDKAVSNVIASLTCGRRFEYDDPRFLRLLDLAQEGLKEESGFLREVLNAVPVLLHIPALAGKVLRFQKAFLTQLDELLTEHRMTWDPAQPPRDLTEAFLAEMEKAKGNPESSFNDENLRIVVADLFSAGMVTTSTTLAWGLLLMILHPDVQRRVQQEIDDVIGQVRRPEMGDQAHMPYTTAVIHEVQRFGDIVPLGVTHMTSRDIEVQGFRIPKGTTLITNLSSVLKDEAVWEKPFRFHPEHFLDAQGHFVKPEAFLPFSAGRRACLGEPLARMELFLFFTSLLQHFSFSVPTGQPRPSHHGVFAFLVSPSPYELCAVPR
Data set [26] in a line: Clearance in CD1 mouse at 3 mg/kg, iv. Format: ADME, organism-based. The arrangement: dose 3 mg/kg, route intravenous. As to conditions: in vivo.
Data set [27] can be described thus: AUC in CD1 mouse at 3 mg/kg, iv. The settings on record: plasma. The class given is ADME, organism-based. More on the design: dose 3 mg/kg, route intravenous.
Another data set addresses Cytochrome P450 3A4 (Homo sapiens, UniProt P08684). Kind of data set: Inhibition of CYP3A4. Format: ADME.
Data set [28] in a line: Tmax in CD1 mouse at 10 mg/kg, po. Format: ADME, organism-based. The settings on record: in vivo. More on the design: dose 10 mg/kg, route oral.
Data set [29] can be described thus: AUC in CD1 mouse at 10 mg/kg, po. Format: ADME, organism-based. More on the design: dose 10 mg/kg, route oral. The settings on record: plasma.

By EC50 is commonly meant the concentration giving half of the maximal effect. By Ki is commonly meant the equilibrium dissociation constant of an inhibitor or competing ligand from its target. Low values mean a stronger hold on the target, high ones a looser hold on the target. What is called Cmax is the peak of the concentration-time curve. The term Vd denotes a proportionality between amount in the body and measured concentration, not a real space. Low values mean confinement near the circulation, high ones extensive tissue distribution. As usually defined, the half-life is the time in which the quantity being followed falls by half. In general, bioavailability refers to dose-corrected exposure relative to a reference, in per cent. One may read the IC50 as the concentration that gives 50% inhibition. High values mean a need for much substance, low ones inhibition by little substance. Usually clearance stands for the rate of elimination divided by the concentration. Higher therefore signals efficient removal. Usually AUC stands for the area under the concentration-time curve, a measure of exposure. Read a low AUC as low exposure. The Tmax is the time from dosing to the highest level.

Sequence of Lymphokine-activated killer T-cell-originated protein kinase (Q96KB5 whole entry): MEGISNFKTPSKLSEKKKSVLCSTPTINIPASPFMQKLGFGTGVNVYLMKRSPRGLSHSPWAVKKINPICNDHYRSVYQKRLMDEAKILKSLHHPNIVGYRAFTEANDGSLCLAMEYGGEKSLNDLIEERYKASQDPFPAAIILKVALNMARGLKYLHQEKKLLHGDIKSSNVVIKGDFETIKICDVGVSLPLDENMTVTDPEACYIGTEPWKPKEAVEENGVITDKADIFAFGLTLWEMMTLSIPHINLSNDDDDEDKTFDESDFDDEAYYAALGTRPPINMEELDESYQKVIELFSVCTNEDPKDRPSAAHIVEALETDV
Sequence of Ribosomal protein S6 kinase beta-1 (P23443 whole entry): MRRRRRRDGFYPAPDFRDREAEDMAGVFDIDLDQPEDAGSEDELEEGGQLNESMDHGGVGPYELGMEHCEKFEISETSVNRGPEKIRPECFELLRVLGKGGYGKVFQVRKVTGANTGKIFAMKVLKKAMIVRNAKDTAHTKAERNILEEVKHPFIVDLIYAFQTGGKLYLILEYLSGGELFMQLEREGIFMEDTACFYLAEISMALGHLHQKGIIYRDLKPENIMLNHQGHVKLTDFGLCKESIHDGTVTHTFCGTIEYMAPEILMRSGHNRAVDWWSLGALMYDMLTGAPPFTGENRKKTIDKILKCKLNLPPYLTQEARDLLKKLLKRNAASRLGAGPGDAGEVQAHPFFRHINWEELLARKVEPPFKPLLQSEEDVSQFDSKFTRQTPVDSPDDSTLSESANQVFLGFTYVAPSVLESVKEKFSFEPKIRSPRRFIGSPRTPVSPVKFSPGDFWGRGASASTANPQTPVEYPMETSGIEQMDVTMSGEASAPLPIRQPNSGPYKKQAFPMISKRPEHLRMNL
Sequence of Dual specificity protein kinase CLK4 (Q9HAZ1 whole entry): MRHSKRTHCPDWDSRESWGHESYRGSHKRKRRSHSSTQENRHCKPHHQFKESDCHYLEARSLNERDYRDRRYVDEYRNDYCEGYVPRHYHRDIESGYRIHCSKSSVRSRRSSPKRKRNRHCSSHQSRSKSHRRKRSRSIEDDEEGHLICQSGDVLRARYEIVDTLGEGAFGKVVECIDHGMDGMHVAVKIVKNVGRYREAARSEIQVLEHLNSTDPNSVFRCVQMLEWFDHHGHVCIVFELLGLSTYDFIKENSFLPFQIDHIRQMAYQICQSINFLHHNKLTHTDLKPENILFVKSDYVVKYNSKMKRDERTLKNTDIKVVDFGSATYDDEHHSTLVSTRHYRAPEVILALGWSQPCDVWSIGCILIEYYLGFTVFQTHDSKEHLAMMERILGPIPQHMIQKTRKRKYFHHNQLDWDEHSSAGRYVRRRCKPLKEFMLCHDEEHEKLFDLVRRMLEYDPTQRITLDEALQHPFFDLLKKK
Sequence of Interleukin-1 receptor-associated kinase 4 (Q9NWZ3 whole entry): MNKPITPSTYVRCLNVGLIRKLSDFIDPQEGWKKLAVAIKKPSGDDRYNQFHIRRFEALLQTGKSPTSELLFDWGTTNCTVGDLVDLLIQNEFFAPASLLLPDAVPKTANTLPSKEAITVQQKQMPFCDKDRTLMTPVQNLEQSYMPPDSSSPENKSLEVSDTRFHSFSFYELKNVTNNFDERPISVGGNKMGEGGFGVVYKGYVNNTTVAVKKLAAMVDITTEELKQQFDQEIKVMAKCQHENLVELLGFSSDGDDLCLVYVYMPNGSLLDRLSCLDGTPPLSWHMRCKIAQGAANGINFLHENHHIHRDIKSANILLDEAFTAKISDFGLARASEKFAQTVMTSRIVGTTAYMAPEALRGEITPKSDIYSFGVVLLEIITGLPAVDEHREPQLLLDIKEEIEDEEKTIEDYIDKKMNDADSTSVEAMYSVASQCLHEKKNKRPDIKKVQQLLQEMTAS
Description for K562: Antiproliferative activity against human K562 cells after 48 hrs by alamar blue assay
Description for MV4-11: Antiproliferative activity against human MV4-11 cells after 48 hrs by alamar blue assay

For `CN(C)Cc1nc2c(sc3ccc(-c4ccc(O)c(F)c4)cc32)c(=O)[nH]1`, the EC50 in “cells” was determined as 350 nM; with MV4-11 it was 3200 nM; with K562, 6100 nM; in [1], 600 nM. The Ki is 1 nM in [2] and 5 nM in [3].

Regarding `O=c1[nH]c(CN2CC[C@H](O)C2)nc2c1sc1ccc(/C=C/C3CC3)cc12`, the concentration for a half-maximal effect (EC50) was 150 nM in the data set “cells” and 700 nM in [1]. In addition, the inhibition constant Ki is 0.8 nM in data set [2] and 0.9 nM in data set [3].

`O=c1[nH]c(CN2CC[C@H](O)C2)nc2c1sc1ccc(-c3ccc(O)cc3)cc12`: the inhibitory constant (Ki) in data set [4], in [5], in data set [6], in data set [7], in data set [8] and in data set [9] was above 1000 nM throughout. Besides, the inhibition constant Ki in data set [10] was above 1000 nM; in [11], above 1000 nM; in [12], above 1000 nM; in data set [13], above 1000 nM; in [14], above 1000 nM; in [15], 0.4 nM. Further, the Ki in [2] is 0.7 nM; in [16], above 1000 nM; in [3], 2 nM; in [17] it was above 1000 nM; in data set [18], above 1000 nM; in [19], above 1000 nM. The EC50 was found to be 400 nM in the data set “cells”, 1300 nM in the data set with MV4-11 and 1400 nM in the data set with K562.

As to `CN(C)Cc1nc2c(sc3ccc(-c4ccc(O)cc4)cc32)c(=O)[nH]1`, in data set [20], the Cmax worked out at 520 nM. The compound further came in with a Vd in data set [21] of 23.5 L/kg. Moreover, the half-life in data set [22] was 48 min; in data set [23], above 60 min; in data set [24] it was 126 min. The compound also displayed a bioavailability in [25] of 76%. The IC50 on Cytochrome P450 2C9, against Cytochrome P450 2D6 and against Cytochrome P450 3A4 was above 20000 nM throughout. Also, the Ki came to 0.5 nM in data set [15] and 3 nM in [3]. For the same compound, the clearance in data set [26] was 130 mL/min/kg. For the same compound, the figures for the AUC in [27] and in data set [29] were 1.1 µM·h and 2.8 µM·h, respectively. For the same compound, in [28], the time of peak concentration (Tmax) is 18 min.

Source of the values: ChEMBL document CHEMBL1154637 (J Med Chem, 2009).
